In patent US7291347B2, “Succinate salt of O-desmethyl-venlafaxine” (Wyeth, priority 2001, dated 2007):
pIC50: −log10 of the molar value. Like-named read-outs stand apart in the source and are kept apart here.

Tests used:
[1] = Physical stability of the crystalline form; assay type: physicochemical
[2] = Aqueous solubility (UV spectrophotometry); assay type: physicochemical; settings: water, thermodynamic from solid
Protocol: The aqueous solubility (reported above) of Form I of ODV succinate was determined according to the following procedure. Materials • Spectrophotometer—Capable of isolating a bandwidth of 2 nm or less at the wavelength of maximum absorbance, and of measuring absorbances in the 0.0 to 1.0 range with a precision of 0.01. A Cary Model 219 spectrophotometer or equivalent is suitable. • Cells—Silica, 1 cm. • Filters—0.45 micron Nylon filters which are chemical resistant or equivalent • Bottles—Glass screw top bottles having a 15 mL or greater capacity. • Shaker—A lateral shaker, wrist shaker, or a vibrator which will not generate heat is suitable. A. For Non UV Absorbing Solvents • 1. To a bottle weigh an amount of sample equivalent to approximately 1½ times the solubility. • 2. […] Agitate the bottles at ambient room temperature for at least 16 hours. • 4. Obtain a clear filtrate layer by either centrifugation of filtration being careful to avoid evaporation. • 5. Quantitatively transfer the solution to a volumetric flask and dilute to volume with water. • 6. Blank the instrument for water. • 7. Make quantitative dilutions to arrive at a suitable concentration for measurement. […] Quantitatively transfer to a volumetric flask with the same solvent used in preparing the standard solution. • 6. Make dilutions as necessary to obtain a concentration suitable for quantitative measurement. […]

[3] = In situ rat intestinal perfusion (site-specific absorption); assay type: in vivo; settings: for Peff Meloprolol: 20 μg/mL
Description: The rat intestine perfusion technique is a direct way to measure the regional absorption properties of a test compound in the gastrointestinal tract. Rat intestinal permeability coefficient (Peff) can be used to predict human in vivo oral absorption of passively absorbed compounds. Fagerholm, M. Johansson, and […], “Comparison between permeability coefficients in rat and human jejunum”, Pharm. […] Meanwhile, some other characteristics such as formulable Maximum Absorbable Dose (MAD), FDA Biopharmaceutical Classification, etc. can also be estimated. […] Rats used in this study were Charles River CD males, ranging in weight from approximately 300-350 grams. Metoprolol (a well-absorbed and passively transported compound) was used as a standard and tested simultaneously along with the ODV compounds. […] All chemicals were of analytical grade. After each experiment, all the analytic assays were performed promptly. For isotope determinations, 0.5 mL of perfusate sample containing ^14C PEG-4000 and ^3H-mannitol was mixed with 5 mL of scintillation cocktail. Radioactivity was counted in a liquid scintillation counter (Wallac 1409). Glucose concentration was determined by the glucose oxidase method (Biochemistry Analyzer). Metoprolol and the ODV compounds were analyzed by HPLC-UV/Vis (HP-1100 with a diode-array detector), using a YMC AQ 120 μ, 5 μ, 150×4.6 mm column and step gradient mobile phase containing water/0.1% TFA and acetonitrile. The ODV compounds and metoroplol were detected at 226 and 272 nm UV wavelength, respectively. Blank perfusate was assayed to evaluate the interference at these chromatographic conditions. The perfusions were performed in three intestinal sections of anesthetized rats: duodenum-jejunum, ileum, and colon. The lengths of the segments were approximately 10-12 cm for small intestine segments and 5-6 cm for colon segments. An inflow cannula was inserted at the proximal end and an outflow cannula was inserted at the distal end. Perfusate was pumped through the segment at 0.19 mL/min, and collected at 20, 40, 55, 70, 85 and 100 minutes. […] The disappearance rates of ODV compound, metoprolol, and glucose were determined from each collection interval by comparing to the initial compound solution remaining in the syringe at the end of the 100 minutes. This is to correct for any losses due to binding to the syringe or tubing. Meanwhile, drug concentration in perfusate samples were corrected for water influx/efflux, which was computed, based on ^14C-PEG-4000 concentration changes. […] Values below this range would indicate tissue damage that allows passage of PEG-4000 outside of the perfused segment, while values above this range would indicate significant water movement out of the segment. Water movement across the gut wall was determined by calculation of net water fluid: Net Water Flux (NWF)=[(1-[…] where PEGout and PEGin are the amount of radioactivity (dpm) of ^14C-PEG-4000 in inlet and outlet sides of the perfused intestinal segment, respectively; Q is the flow rate of perfusate; and L is the length of perfused segment (cm). The presence of the ODV compound in the perfusate was determined by HPLC. The amount of drug present at each time point was corrected for water movement across the wall of the intestine: Cout,[…]) where Cout is the concentration of drug in outlet perfusate; Cout,corr is the concentration of drug in outlet perfusate corrected for water moving in or out of the segment, as determined by the recovery of ^14C-PEG-4000. Effective intestinal permcability, Peff (cm/sec), was determined by the following equation: […] Cin is the concentration of drug in inlet perfusate; 2 μrL is the inner surface area of the perfused segment, with r assumed to be 0.18 cm in the rat (see G. Amidon, […]. Crison. “A theoretical basis for a biopharmaceutic drug classification: The correlation of in vitro drug product dissolution and in vivo bioavailability.” Pharm. Res. 12, 1995, 413-420) and L the length of the perfused segment (cm). […]

Opiate = settings: at 1 uM; cited from earlier work
Norepinephrine reuptake = settings: in vitro; read-out: Inhibition of amine reuptake (IC50), Norepinephrine; cited from earlier work
Dopamine reuptake = settings: in vitro; read-out: Inhibition of amine reuptake (IC50), Dopamine; cited from earlier work
[4] = tested on: Reserpine-Induce Hypothermia; settings: i.p.; cited from earlier work
Serotonin reuptake = settings: in vitro; read-out: Inhibition of amine reuptake (IC50), Serotonin; cited from earlier work
Cholinergic = settings: at 1 uM; cited from earlier work
Adrenergic α = settings: at 1 uM; cited from earlier work
[5] = Stability in perfusion buffer and jejunal fluids; assay type: in vitro ADME, rat; settings: for stability in blank perfusion buffer and jejunal fluids: pH 6.8, 37° C., up to 6 hours; for relative percentage remaining of HPLC peak area: 37° C.
Protocol: The stability of ODV succinate or fumarate in the solutions of blank perfusion buffer (Pβ), and jejunal fluids (perfusion buffer collected by washing the isolated jejunal segment, pH=6.8) was determined at 37° C. for up to 6 hours.

[6] = Bioavailability of O-desmethyl-venlafaxine in beagle dogs; assay type: in vivo; settings: male, dog, plasma, free ODV levels, mean (% CV); for bioavailability: read-out: Absolute Bioavailability (%)
Protocol: Prior to administration, the oral solution (25 mg/mL) was diluted to a concentration of 7.5 mg/mL with water. […] Six male beagle dogs with body weights ranging between 10.2 and 16.0 kg were used in this study. The dogs were housed and given free access to water and food. The six dogs were dosed in a 4 period study. In Period 1, the dogs received 1 mL of the intravenous solution. In Period 2, the dogs received 10 mL of the oral solution. In Period 3, the dogs received the tablet. In Period 4, the dogs received the capsule. There was a one week wash out period between the first two treatment periods and a one month wash out period between treatment periods 2 and 3. Between periods 3 and 4, there was a one week wash out period. For periods 1 and 2, all dogs were fasted overnight with free access to water and fed after the four-hour bleeding. […] Plasma was separated in a refrigerated centrifuge and stored at -70° C. Plasma samples were then assayed. Plasma O-desmethyl-venlafaxine concentrations were determined by the HPLC method using mass spectrometric detection described in Hicks, […]., Russel, […] high-performance liquid chromatographic method for the simultaneous determination of venlafaxine and O-desmethylvenlafaxine in biological fluids”, Ther. Drug Monit. 16:100-107 (1994), which is hereby incorporated by reference. […] O-desmethyl-venlafaxine-glucuronide levels were determined by subtracting the O-desmethyl-venlafaxine (separate extraction procedure without the use of β-glucuronidase and analyzed by HPLC-MS) concentrations from the total O-desmethyl-venlafaxine concentrations. Noncompartmental pharmacokinetic parameters were calculated from the individual dog plasma O-desmethyl-venlafaxine and O-desmethyl-venlafaxine-glucuronide concentration-time profiles. Area under the plasma concentration-time curves (AUC0-μ) values were calculated by the addition of AUCLast (AUCLast=the linear trapezoid rule from time zero to the last measurable plasma concentration, […]) and […]/lambda. The values for lambda were determined from the long-linear portion of the terminal slope of the plasma O-desmethyl-venlafaxine and O-desmethyl-venlafaxine-glucuronide concentration-time profile after the intravenous dose. […] The peak plasma concentration (Cmax) and the time to reach Cmax (tmax) were noted directly from the plasma concentration-time profiles. Absolute bioavailability was determined by comparing the dose normalized AUC0-μvalues following the intravenous administration. All levels reported as below limit of quantitation (BLQ) were assigned a value of zero for calculation purposes.

[7] = male, Charles River CD, rat, in vivo, 50 μg/mL, pH 6.8
[8] = po, 75 mg, Oral Solution (75 mg)

Question: What does the source list for `CN(C)CC(c1ccc(O)cc1)C1(O)CCCCC1.O=C(O)CCC(=O)O` (centres unmarked) [Form I, O-des-methyl-Venlafaxine succinate monohydrate]?
Answer: physically stable at relative humidity [1]: 5-95%; physically stable up to (temperature) [1]: at least 105 °C; solubility ([2]; at 25° C.): 32.2 mg/mL

Question: For `COCCc1ccc(OCC(O)CNC(C)C)cc1` (centres unmarked) [Meloprolol, Metoprolol, reference compound], which “Peff Meloprolol” value ([3]; Colon, perfused together with ODV fumarate) is on record?
Answer: Its value is 11 10^−5 cm/sec.

Question: What about the “Peff Meloprolol” value ([3]; Colon, perfused together with ODV succinate) of the same compound?
Answer: The value was 0.583 ± 0.087 10^−5 cm/sec.

Question: What about the “Peff Meloprolol” value ([3]; Ileum, perfused together with ODV fumarate) of the same compound?
Answer: Its value is 53 10^−5 cm/sec.

Question: What about the “Peff Meloprolol” value ([3]; Ileum, perfused together with ODV succinate) of the same compound?
Answer: Its value is 3.22 ± 0.07 10^−5 cm/sec.

Question: And the “Peff Meloprolol” value ([3]; Jejunum, perfused together with ODV fumarate)?
Answer: Its value is 1.78 ± 0.93 10^−5 cm/sec.

Question: What about the “Peff Meloprolol” value ([3]; Jejunum, perfused together with ODV succinate) of the same compound?
Answer: Its value is 2.50 ± 0.11 10^−5 cm/sec.

Question: For `CN(C)CC(c1ccc(O)cc1)C1(O)CCCCC1` (centres unmarked) [O-desmethylvenlafaxine, 1-[2-(dimethylamino)-1-(4-phenol)ethyl]-cyclohexanol], which “Affinity for Various Neuroreceptors (% inhibition), Opiate” value (Opiate) is on record?
Answer: The value was 7%.

Question: And the pIC50 (Norepinephrine reuptake)?
Answer: The pIC50 was 5.94.

Question: What about the pIC50 (Dopamine reuptake) of the same compound?
Answer: The pIC50 was 4.87.

Question: And the “Reversal of Reserpine-Induce Hypothermia (minimum effect)” value [4]?
Answer: The value was 3 mg/kg.

Question: What about the pIC50 (Serotonin reuptake) of the same compound?
Answer: The pIC50 was 6.74.

Question: What about the “Affinity for Various Neuroreceptors (% inhibition), Cholinergic” value (Cholinergic) of the same compound?
Answer: Its value is 7%.

Question: What about the “Affinity for Various Neuroreceptors (% inhibition), Adrenergic α” value (Adrenergic α) of the same compound?
Answer: The value was 0%.

Question: Which MAD predicted ([3]; rat, in vivo) does the source give for `CN(C)CC(c1ccc(O)cc1)C1(O)CCCCC1.O=C(O)/C=C/C(=O)O` (centres unmarked) [ODV fumarate, reference compound] here?
Answer: Its MAD predicted is “about 440 mg”.

Question: What about the “Peff as percentage of the succinate's Peff values” ([3]; rat, in vivo) of the same compound?
Answer: The value was 27μ40.

Question: And the Peff values ([3]; rat, in vivo)?
Answer: Its Peff values is 0.24-0.68 ×10^−5 cm/sec.

Question: And the “in vivo Fa estimated” value ([3]; rat, in vivo)?
Answer: Its value is 33-45%.

Question: And the “stability in blank perfusion buffer and jejunal fluids” value [5]?
Answer: The value was “no apparent degradation/metabolism”.

Question: What does the source list for `CN(C)CC(c1ccc(O)cc1)C1(O)CCCCC1.O=C(O)CCC(=O)O` (centres unmarked) [ODV succinate, O-desmethyl-venlafaxine succinate]?
Answer: Peff as percentage of metoprolol's Peff value [3, 7]: about 10%; Peff's ratio of duodenum-jejunum vs. ileum vs. colon [3, 7]: 1.00:1.90:0.07; human in vivo Fa predicted ([3]; rat, in vivo, 50 μg/mL, pH 6.8): 60-77%; AUC ([6]; iv, 25 mg, Intravenous Solution (25 mg)): 746 ng·h/mL; AUC ([6]; po, 75 mg, Capsule (75 mg)): 904 ng·h/mL; Cmax ([6]; po, 75 mg, Capsule (75 mg)): 465 ng/mL; Tmax ([6]; po, 75 mg, Capsule (75 mg)): 33 min; bioavailability ([6]; po, 75 mg, Capsule (75 mg)): 40%; AUC [6, 8]: 835 ng·h/mL; Cmax [6, 8]: 450 ng/mL; Tmax [6, 8]: 30 min; bioavailability [6, 8]: 37%; AUC ([6]; po, 75 mg, Tablet (75 mg)): 677 ng·h/mL; Cmax ([6]; po, 75 mg, Tablet (75 mg)): 115 ng/mL; Tmax ([6]; po, 75 mg, Tablet (75 mg)): 175 min; bioavailability ([6]; po, 75 mg, Tablet (75 mg)): 31%; relative percentage remaining of HPLC peak area ([5]; Blank Perfusion Buffer, 0 hours): 100.0%; relative percentage remaining of HPLC peak area ([5]; Blank Perfusion Buffer, 2 hours): 99.9%; relative percentage remaining of HPLC peak area ([5]; Blank Perfusion Buffer, 3 hours): 100.3%; relative percentage remaining of HPLC peak area ([5]; Blank Perfusion Buffer, 6 hours): 99.9%; relative percentage remaining of HPLC peak area ([5]; Intestinal fluid (pH 6.8, total protein approx. 0.2 mg/ml), 0 hours): 100.0%; relative percentage remaining of HPLC peak area ([5]; Intestinal fluid (pH 6.8, total protein approx. 0.2 mg/ml), 2 hours): 99.6%; relative percentage remaining of HPLC peak area ([5]; Intestinal fluid (pH 6.8, total protein approx. 0.2 mg/ml), 3 hours): 99.8%; relative percentage remaining of HPLC peak area ([5]; Intestinal fluid (pH 6.8, total protein approx. 0.2 mg/ml), 6 hours): 100.1%; stability in blank perfusion buffer and jejunal fluids [5]: no apparent degradation/metabolism; solubility ([2]; general statement): > 30 mg/mL
